In patent US20200339953A1, “HEMATOPOIETIC STEM AND PROGENITOR CELL THERAPY” (priority 2010, published 2020):
“Also recorded” adds a separate entry of the source.

Legend:
[1] = system: Whole cord blood cells or CD34^+ cells; test: Cell viability assay (7-AAD staining); format: cell-based, human
Procedure: Whole cord blood cells or CD34^+ cells obtained from Stem Cell Technologies (Vancouver, Canada) were aliquoted equally in Eppendorf tubes and treated ex vivo at a range of 16,16-dimethyl PGE2 concentrations (10 μM to 100 μM) or DMSO control; temperatures (4° C., 22° C., or 37° C.) for 60 or 120 minutes in LMD/5% HSA media. After treatment, an aliquot of the incubated cells were assayed using 7-Amino-Actinomycin D (7-AAD) staining as an indicator of cell death. One million whole cord blood were stained with 5 μL of 7AAD staining solution (BD Bioscience, San Jose, Calif.), or 200,000 CD34^+ cord blood cells were stained with 1 μL 7-AAD solution. Cells were analyzed on a Guava EasyCyte 8HT System (Millipore) and with the FlowJo software package (Tree Star Inc., Ashland, Oreg.). A separate aliquot of the same cells were also taken for assessment of proliferation potential using CFU-C assays (discussed below in Example 4).

[2] = system: Murine whole bone marrow (WBM) cells; test: Colony forming Unit Spleen at day 12 (CFU-S12) assay; format: in vivo, C57Bl/6 mice; settings: 10 μM; for CFU-S12 number: WBM
Procedure: Colony forming Unit Spleen at day 12 (CFU-S12) assays were performed as described in North et al., Nature. 2007 Jun. 21; 447(7147):1007-11. […] After treatment, the cells were washed by centrifugation and resuspended in PBS for tail-vein injection into C57Bl/6 recipients (2×5/treatment) that had been previously lethally irradiated at 10.5Gy. 50,000 cells were injected per recipient. […]

[3] = system: Whole cord blood cells or CD34^+ cells; test: Colony Forming Unit-Cell assay (CFU-C); format: cell-based, human
Procedure: Colony Forming Unit-Cell assays (CFU-C) were performed using a methyl cellulose assay kit, MethoCult® GF H4034 (Stem Cell Technologies, Vancouver, CA). Whole cord blood cells or CD34^+ cells obtained from Stem Cell Technologies (Vancouver, Canada) were aliquoted equally in Eppendorf tubes and treated ex vivo at a range of 16,16-dimethyl PGE2 concentrations (10 μM to 100 μM) or DMSO control; temperatures (4° C., 22° C., or 37° C.) for 120 minutes in LMD/5% HSA media. After treatment, the cells were washed in LMD/5% HSA media and resuspended in Iscove's Media containing 2% Fetal Bovine Serum (FBS) (Stem Cell Technologies). Cells were then loaded into a MethoCult® assay tube, mixed, and plated in 35 mm tissue culture plates according to the manufacturer's instructions. Unless otherwise mentioned, the equivalent of 10,000 WCB cells and 250 CD34^+ cells were loaded into each plate.

[4] = system: CD34^+ cells; test: Whole genome expression arrays (Affymetrix GeneChip); format: cell-based, human
Procedure: Human umbilical cord blood and pre-isolated CD34^+ cells from human umbilical cord blood were purchased from Stem Cell Technologies Inc. (Vancouver, BC, Canada). Cells were incubated in either low molecular weight dextran with 5% human serum albumin media (LMD/5% HSA) or Stem Span media (Stem Cells Technology Inc.) for ex vivo treatment with 16,16-dimethyl PGE2. Total RNA was isolated from incubated cells using a Pico Pure RNA Isolation Kit (Molecular Devices, Sunnyvale, Calif.).
Biotinylated amplified RNA (aRNA) was prepared using the standard protocol for MessageAmp II aRNA Amplification Kit (Applied Biosystems/Ambion, Austin, Tex.) and the optional Second Round Amplification; the copy RNA (cRNA) was transcribed into biotin labeled aRNA using MessageAmp II Biotin Enhanced Kit (Applied Biosystems/Ambion, Austin, Tex.) according to the manufacturer's instructions. Biotin labeled aRNA was purified and fragmented according to the Applied Biosystems protocols. 20 μg of fragmented aRNA was hybridized to Human Genome U133 Plus 2.0 GeneChips (Affymetrix Inc., Santa Clara, Calif.) for 16 hrs at 45° C.
The GeneChips were washed and stained in the Affymetrix Fluidics Station 450 and scanned using the Affymetrix GeneChip Scanner 3000 7G. The image data were analyzed using Affymetrix Expression Console software and default analysis settings. GeneChip expression data were normalized by log scale robust multi-array analysis (RMA) and visualized in Spotfire for Genomics 3.1 (Tibco Spotfire, Palo Alto, Calif.). Pathway analysis was performed in MetaCore. (GeneGo, St. Joseph, Mich.).
GeneChip technology was used to determine the effects of time (incubation for 5, 15, 20, 30, 40, 60, 80, 100, 120, 180, or 240 minutes), temperature (incubation at 4° C., 25° C., or 37° C.), and final 16,16-dimethyl PGE2 concentration (0.1 μm, 1 μM, 10 μM, 50 μM, or 100 μM) on cellular gene expression.
Gene expression profiles were analyzed for CD34^+ cells incubated with 10 μM 16,16-dimethyl PGE2 at 37° C. for 5, 15, 30, 60, or 120 minutes. For incubation (e.g., treatment) periods less than 120 minutes, the cells were washed in media to remove the 16,16-dimethyl PGE2 and then the cells were incubated for the remaining period in media to allow time for changes in gene expression to take place (See FIG. 5).

[5] = CD34+ cells, 10 μM, 120 minutes, 37° C. vs vehicle or 4° C.
[6] = whole cord blood cells or CD34+ cells, high temperatures, relatively long incubation periods vs other conditions

SMILES: CCCCC(C)(C)[C@H](O)/C=C/[C@H]1[C@H](O)CC(=O)[C@@H]1C/C=C\CCCC(=O)O [16,16-dimethyl PGE2]
- cell viability (FIG. 10) [1, 5]: does not decrease cell viability
- cell viability (7-AAD) [1, 6]: did not decrease cell viability
- number of hematopoietic progenitor cells (FIG. 19A) ([2]; 37° C. incubation): increases the number of hematopoietic progenitor cells
- CFU-S12 number ([2]; 4° C. for 1 hour): 8.5±1.3 colonies
- CFU-S12 number ([2]; 37° C. for 1 hour): 11.2±1.5
- CFU-S number compared to DMSO treated cells ([2]; murine bone marrow, 4° C. treatment): small increase in CFU-S number
- CFU-C colony formation (FIG. 19D) ([3]; CD34+ cells treated at 37° C. vs DMSO or 4° C.): increase in CFU-C colony formation
- ability to form colony forming units (FIG. 11) [3, 5]: does not decrease the ability of the cells to form colony forming units
- proliferative potential (CFU-C) [3, 6]: higher proliferative potential
- signature gene expression changes after very short incubation ([4]; 10 μM, 37° C., 5-15 minutes, assessed after 120 minutes total): minimal gene expression changes
- incubation time after which gene expression changes were apparent ([4]; 10 μM, 37° C., assessed after 120 minutes total): 30 min
- genes downregulated ([4]; 10 μM, 120 minutes, 37° C.): 243 genes
- genes modulated at a statistically significant level, total ([4]; 10 μM, 120 minutes, 37° C.): 608 genes
- genes upregulated ([4]; 10 μM, 120 minutes, 37° C.): 365 genes
- fold increase in CXCR4 expression ([4]; 10 μM, 120 minutes, 37° C., relative to DMSO/vehicle treated control): 18 fold
- fold increase in CREM expression (FIG. 4) ([4]; 10 μM, vs vehicle treated CD34+ cells): 8 fold
- Fold change (increases) AREG ([4]; Amphiregulin, CD34+ cells, 10 μM, 120 minutes, 37° C. vs DMSO): 23.32 fold
- gene expression changes at 100 μM at 4° C. and 25° C. compared with 10 μM at 37° C. ([4]; CD34+ cells): smaller gene expression changes
- gene expression associated with apoptosis or cell death ([4]; CD34+ cells incubated at 37° C.): no increase in gene expression associated with apoptosis or cell death; also recorded: no increase in gene expression of apopotosis or cell death associated genes
- concentration at which the full gene expression signature was reproduced ([4]; CD34+ cells, 120 minutes, 37° C., no further substantial changes above): 10 µM
- Fold change (increases) CXCR4 ([4]; CXC chemokine Receptor 4, CD34+ cells, 10 μM, 120 minutes, 37° C. vs DMSO): 7.33 fold
- Fold change (increases) DUSP4 ([4]; Dual specificity protein phosphatase 4, CD34+ cells, 10 μM, 120 minutes, 37° C. vs DMSO): 25.75 fold
- Fold change (increases) FOSL2 ([4]; Fos-related antigen 2, CD34+ cells, 10 μM, 120 minutes, 37° C. vs DMSO): 8.11 fold
- Fold change (increases) GEM ([4]; GTP-binding protein GEM, CD34+ cells, 10 μM, 120 minutes, 37° C. vs DMSO): 28.18 fold
- Fold change (increases) HAS1 ([4]; Hyaluronan synthase 1, CD34+ cells, 10 μM, 120 minutes, 37° C. vs DMSO): 55.83 fold
- Fold change (increases) NR4A2 ([4]; Nuclear receptor related 1 protein, CD34+ cells, 10 μM, 120 minutes, 37° C. vs DMSO): 22.30 fold
- Fold change (increases) REN ([4]; Renin, CD34+ cells, 10 μM, 120 minutes, 37° C. vs DMSO): 19.50 fold
- CXCR4 RNA expression ([4]; WCB or CD34+ cells, 10 μM, 2 hours, 37° C. vs DMSO or 10 μM 1 hour 4° C.): increase in CXCR4 RNA expression
- Fold change (increases) CREM ([4]; cAMP-responsive element modulator, CD34+ cells, 10 μM, 120 minutes, 37° C. vs DMSO): 12.90 fold
- Fold change (increases) COL1A1 ([4]; collagen, type I, alpha 1, CD34+ cells, 10 μM, 120 minutes, 37° C. vs DMSO): 10.50 fold
